In patent publication US8053453B2, “Pyrazolone compounds and thrombopoietin receptor activator” (Nissan Chemical Industries, Ltd., priority 2002, dated 2011):

Experiments:
human TPO receptor [1] = target: T1, human TPO receptor (Homo sapiens, UniProt P40238); assay: Proliferation of TPO-dependent cell line UT7/EPO-mpl, WST-8 reagent (Assay Example 5); assay type: cell-based; conditions: WST-8, 4 days; for Efficacy (%) (maximal growth rate): growth with 10 ng/ml TPO = 100%
T1 construct: expressed in transfected cells
T1 sequence (P40238 26-635): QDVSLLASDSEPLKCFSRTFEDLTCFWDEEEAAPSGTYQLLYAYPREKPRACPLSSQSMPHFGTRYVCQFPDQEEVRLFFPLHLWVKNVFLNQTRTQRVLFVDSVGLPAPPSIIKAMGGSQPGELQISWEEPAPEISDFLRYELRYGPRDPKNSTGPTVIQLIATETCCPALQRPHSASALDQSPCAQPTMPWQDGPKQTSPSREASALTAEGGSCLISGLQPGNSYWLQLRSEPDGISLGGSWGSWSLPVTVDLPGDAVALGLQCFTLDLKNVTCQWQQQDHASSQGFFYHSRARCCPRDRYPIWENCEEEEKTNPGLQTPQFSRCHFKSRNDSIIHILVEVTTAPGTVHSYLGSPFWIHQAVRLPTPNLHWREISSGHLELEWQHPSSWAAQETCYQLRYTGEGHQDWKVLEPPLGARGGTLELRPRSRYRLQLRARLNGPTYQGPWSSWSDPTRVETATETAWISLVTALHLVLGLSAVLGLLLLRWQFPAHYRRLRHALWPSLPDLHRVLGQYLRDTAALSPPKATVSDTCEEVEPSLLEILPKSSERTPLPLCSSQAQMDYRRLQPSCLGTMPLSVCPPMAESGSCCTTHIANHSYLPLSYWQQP
Experimental: Human leukemic cell line UT7/EPO-mpl was washed twice with PBS and suspended in IMDM containing 10% FBS at a cell density of 6×10^4 cells/ml. The cell suspension was transferred to a 96-well tissue culture plate (CORNING) in 100-μl aliquots. Then either TPO or the following Synthetic Examples, each dissolved in DMSO, were diluted 83-fold with IMDM containing 10% FBS and added to the aforementioned cell suspension in 20-μl aliquots. The suspension was incubated in a CO2 incubator (5% CO2, 37° C.) for 4 days. Cell proliferation was assayed using WST-8 reagent (Kishida Chemical, Co. Ltd.) according to instructions by the manufacturer. A 10-μl aliquot of 5 mM WST-8 reagent solution was added to each well of the tissue culture plate and the plate was incubated at 37° C. for 4 h. The formazan pigment generated was detected by measuring the absorbance at 450 nm with a 96-well microplate reader (Nihon Molecular Devices, SpectraMax 190). The concentration of each compound that yields a growth rate corresponding to 50% of the growth of human leukemic cell line UT7/EPO-mpl observed in the presence of 10 ng/ml TPO (EC50T) and the maximal growth rate achieved by the same compound (efficacy), expressed by taking the value with human leukemic cell line UT7/EPO-mpl in the presence of 10 ng/ml TPO as 100% standard, are summarized in Table 9.

human TPO receptor [2] = target: T1, human TPO receptor; assay: Proliferation of TPO-dependent cell line UT7/EPO-mpl, MTT method (Assay Examples 1, 3, 4); assay type: cell-based; conditions: UT7/EPO-mpl cells; for EC50: concentration giving 50% of the maximum cell growth observed with the same compound; for Efficacy (%) (maximal growth rate) / Emax: value in the presence of 10 ng/ml TPO taken as 100% standard, method of Assay Example 1; for Emax: read-out: Efficacy (%) (maximal growth rate)
Experimental: The reactivity of Synthetic Example 56, the compound of the present invention, with thrombopoietin (TPO) receptor was assayed using a human leukemic cell line, UT7/EPO-mpl.
UT7/EPO-mpl is a stable transformed cell line obtained by introducing into human leukemic cell line UT7/EPO a vector that induces expression of human TPO receptor (c-mp1) under control of a cytomegaloviral promoter by the method of Takatoku et al. (J. Biol. Chem., 272:7259-7263 (1997)). […] These two cell lines were subcultured in Iscove's modified Dulbecco's medium (IMDM; GIBCO) containing 10% fetal bovine serum (FBS; TRACE SCIENTIFIC) using a CO2 incubator (5% CO2, 37° C.).
The subcultured cells described above were washed twice with phosphate buffered saline (PBS) and suspended in IMDM containing 10% FBS at a cell density of 6×10^4 cells/ml. The cell suspension was transferred to a 96-well tissue culture plate (CORNING) in 100-μl aliquots. Then either TPO (PeproTech EC) or Synthetic Example 56 dissolved in dimethylsulfoxide (DMSO) was diluted 83-fold with IMDM containing 10% FBS and added to the aforementioned cell suspension in 20-μl aliquots. The suspension was incubated in a CO2 incubator (5% CO2, 37° C.) for 4 days. Cell proliferation was assayed according to the method of Mosmann et al. (J. Immunol. Methods, 65:55-63 (1983)). A 10-μl aliquot of 5 mg/ml MTT reagent (SIGMA) was added to each well of the tissue culture plate and the plate was incubated at 37° C. for 4 h. The formazan pigment generated was dissolved by adding 150 μl per well of 0.1 M HCl/isopropanol solution and the absorbance of the resulting pigment solution was measured at 550 nm with a 96-well microplate reader (BIO-RAD, M450).
The following Synthetic Examples were tested according to the method of Assay Example 1 to determine the maximal growth rate (efficacy), expressed by taking the value with human leukemic cell line UT7/EPO-mpl observed in the presence of 10 ng/ml TPO as 100% standard, and the concentration of each compound that yields a growth rate corresponding to 50% of the maximum cell growth observed with the same compound (EC50).
Synthetic Example 56, the compound of the present invention, and four compounds (Reference Synthetic Examples 1 to 4) described in a publication of international patent application (Publication No. WO01/34585, applied by SmithKline Beecham Corp.) were tested according to the method of Assay Example 1.

[3] = read-out: EC50 (ng/ml) (converted)

| EC50T (concentration yielding 50% of the growth observed with 10 ng/ml TPO) (human TPO receptor [1]) [µg/mL] | Efficacy (%) (maximal growth rate) (human TPO receptor [1]) | EC50 (human TPO receptor [2]) [µg/mL] | Efficacy (%) (maximal growth rate) (human TPO receptor [2]) | Structure (SMILES) | also measured |
| --- | --- | --- | --- | --- | --- |
| 0.025 | 94 |  |  | CC1=NN(c2ccc(C(C)(C)C)cc2)C(=O)C1=CNNC(=O)c1ccc(C(=O)O)cc1 [compound 97] |  |
| 0.031 | 96 |  |  | COC(=O)c1ccc(C(=O)NNC(C)=C2C(=O)N(c3ccc(C(C)(C)C)cc3)N=C2C)s1 [compound 98] |  |
| 0.018 | 100 |  |  | COC(=O)c1ccc(C(=O)NNC(C)=C2C(=O)N(c3ccc(Cl)nn3)N=C2C)cc1 [compound 101] |  |
| 0.059 | 107 |  |  | CC1=NN(c2ccc3ccccc3n2)C(=O)C1=C(C)NNC(=O)c1ccc(C(=O)O)cc1 [compound 100] |  |
| 0.0033 | 93 |  |  | CC(NNC(=O)c1ccc(C(=O)O)cc1)=C1C(=O)N(c2ccc(C)c(C)c2)N=C1C(F)(F)F [compound 96] |  |
| 0.0039 | 110 |  |  | CC1=NN(c2ccc(C(C)(C)C)cc2)C(=O)C1=C(C)NNC(=O)c1ccc(C(=O)O)s1 [compound 99] |  |
|  | 90 |  |  | CC1=NN(c2ccc(C(C)(C)C)cc2)C(=O)C1=C(C)NNC(=O)c1ccc(-c2nnn[nH]2)cc1 [compound 103] | EC50 (human TPO receptor [1]; read-out: EC50T (concentration yielding 50% of the growth observed with 10 ng/ml TPO) (converted)): 10.5 nM |
| 0.069 | 100 |  |  | CC1=NN(c2ccc(C(F)(F)F)cn2)C(=O)C1=C(C)NNC(=O)c1ccc(C(=O)O)cc1 [compound 102] |  |
| 0.0033 | 95 |  |  | CC(NNC(=O)c1ccc(O)cc1O)=C1C(=O)N(c2ccc(C)c(C)c2)N=C1C(F)(F)F [compound 94] |  |
| 0.052 | 71 |  |  | COC(=O)c1ccc(C(=O)NNC(C)=C2C(=O)N(c3ccc(C)c(C)c3)N=C2C(F)(F)F)cc1 [compound 95] |  |
|  |  | 0.0051 | 78 | CC1=NN(c2ccc(Cl)c(Cl)c2)C(=O)C1=C(C)NNC(=O)c1ccc(N)cc1 [compound 77] |  |
|  |  | 0.0022 | 99 | CC1=NN(c2ccc(C)c(C)c2)C(=O)C1=C(C)NNC(=O)c1ccc(C(=O)O)cc1 [compound 7] |  |
|  |  | 0.01 | 84 | CC1=NN(c2ccc(C)c(C)c2)C(=O)C1=C(C)NNC(=O)c1ccc(N)cc1 [compound 73] |  |
|  |  | 0.22 | 53 | CC1=NN(c2ccc(C)c(C)c2)C(=O)C1=C(C)NNC(=O)c1cc2ccccc2cc1O [compound 55] |  |
|  |  |  |  | Cc1ccc(-n2nc(C)c(C=NN3C(=O)C(=Cc4ccc(C(=O)O)cc4)SC3=S)c2O)cc1C [Reference Synthetic Example 1, 5-(4-carboxybenzylidene)-3-[(1-{3,4-dimethylphenyl}-5-hydroxy-3-methyl-1H-pyrazol-4-ylmethylene)amino]-2-thioxothiazolidin-4-one, reference compound] | Emax (human TPO receptor [2]): 7% |
|  |  | 0.25 | 26 | CC1=NN(c2ccc(I)cc2)C(=O)C1=C(C)NNC(=O)c1ccc([N+](=O)[O-])cc1 [compound 44] |  |
|  |  |  |  | COC(=O)c1ccc(C(=O)NNC(C)=C2C(=O)N(c3cccc(C(F)(F)F)c3)N=C2C)cc1 [compound 8] | EC50 (human TPO receptor [2]; [3]): 67.3 nM; Emax (human TPO receptor [2]): 52% |
|  |  | 0.033 | 133 | CC1=NN(c2ccc(Cl)c(Cl)c2)C(=O)C1=C(C)NNC(=O)c1ccccc1[N+](=O)[O-] [compound 66] |  |
|  |  | 0.075 | 88 | CC1=NN(c2ccc(C(C)(C)C)cc2)C(=O)C1=C(C)NNC(=O)c1ccc(C(C)(C)C)cc1 [compound 72] |  |
|  |  | 0.037 | 90 | CC1=NN(c2ccc(C(F)(F)F)cc2)C(=O)C1=C(C)NNC(=O)c1cc2ccccc2cc1O [compound 32] |  |
|  |  | 0.083 | 87 | CC1=NN(c2ccc(I)cc2)C(=O)C1=C(C)NNC(=O)c1cccc([N+](=O)[O-])c1 [compound 43] |  |
|  |  | 0.039 | 68 | CC1=NN(c2cccc(C(F)(F)F)c2)C(=O)C1=C(C)NNC(=O)c1cccc(N)c1 [compound 89] |  |
|  |  | 0.0043 | 84 | CC1=NN(c2ccc(C)c(C)c2)C(=O)C1=CNNC(=O)c1ccc(O)cc1O [compound 93] |  |
|  |  | 0.0057 | 89 | CC1=NN(c2ccc(C(C)(C)C)cc2)C(=O)C1=C(C)NNC(=O)c1ccc(N)cc1 [compound 69] |  |
|  |  | 0.16 | 81 | CC1=NN(c2ccc(Cl)c(Cl)c2)C(=O)C1=C(C)NNC(=O)c1ccc(C(F)(F)F)cc1 [compound 79] |  |
|  |  | 0.0056 | 75 | CC1=NN(c2ccc(C(C)(C)C)cc2)C(=O)C1=C(C)NNC(=O)c1ccc(O)c(O)c1 [compound 27] |  |
|  |  |  |  | CC1=NN(c2ccc(C)c(C)c2)C(=O)C1=C(C)NNC(=O)c1ccccc1O [compound 53] | EC50 (human TPO receptor [2]; [3]): 31.7 nM; Emax (human TPO receptor [2]): 120% |
